Experimental data from the supplement of paper PMC10307832.

Legend:
Experiment in all cases: relative viability (nuclei count vs DMSO), 5 days (fraction); higher = more cells survive
VE-821 + Luminespib = compound: CS(=O)(=O)c1ccc(-c2cnc(N)c(C(=O)Nc3ccccc3)n2)cc1 [VE-821] + CCNC(=O)c1noc(-c2cc(C(C)C)c(O)cc2O)c1-c1ccc(CN2CCOCC2)cc1 [Luminespib] (partner 0.01 µM)
Outline: (§1)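 Dosing by pin tool came one day after lung cancer cell lines were seeded in 1536-well plates, using either one drug or a fixed anchor-drug dose plus five library-drug doses (not always all listed) in √10 steps. After 5 days, nuclei were counted on 4× images. Relative viability is treated-well nuclei count divided by vehicle-well nuclei count, and values are medians of duplicate plates.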

VE-821 + Lapatinib = compound: CS(=O)(=O)c1ccc(-c2cnc(N)c(C(=O)Nc3ccccc3)n2)cc1 [VE-821] + CS(=O)(=O)CCNCc1ccc(-c2ccc3ncnc(Nc4ccc(OCc5cccc(F)c5)c(Cl)c4)c3c2)o1 [Lapatinib] (partner 2 µM)
Outline: as §1

Vismodegib + Navitoclax = compound: CS(=O)(=O)c1ccc(C(=O)Nc2ccc(Cl)c(-c3ccccn3)c2)c(Cl)c1 [Vismodegib] + CC1(C)CCC(c2ccc(Cl)cc2)=C(CN2CCN(c3ccc(C(=O)NS(=O)(=O)c4ccc(N[C@H](CCN5CCOCC5)CSc5ccccc5)c(S(=O)(=O)C(F)(F)F)c4)cc3)CC2)C1 [Navitoclax] (partner 0.5 µM)
Outline: as §1

Ruxolitinib + OSI-027 = compound: N#CC[C@H](C1CCCC1)n1cc(-c2ncnc3[nH]ccc23)cn1 [Ruxolitinib] + COc1cccc2cc(-c3nc([C@H]4CC[C@H](C(=O)O)CC4)n4ncnc(N)c34)[nH]c12 [OSI-027] (partner 0.5 µM)
Outline: as §1

Cell Line | relative viability (VE-821 + Luminespib; first compound 0.08 µM) | relative viability (VE-821 + Luminespib; first compound 0.253 µM) | relative viability (VE-821 + Luminespib; first compound 0.8 µM) | relative viability (VE-821 + Luminespib; first compound 2.53 µM) | relative viability (VE-821 + Luminespib; first compound 8 µM) | relative viability (VE-821 + Lapatinib; first compound 0.08 µM) | relative viability (VE-821 + Lapatinib; first compound 0.253 µM) | relative viability (VE-821 + Lapatinib; first compound 0.8 µM) | relative viability (VE-821 + Lapatinib; first compound 2.53 µM) | relative viability (VE-821 + Lapatinib; first compound 8 µM) | relative viability (Vismodegib + Navitoclax; first compound 0.08 µM) | relative viability (Vismodegib + Navitoclax; first compound 0.253 µM) | relative viability (Vismodegib + Navitoclax; first compound 0.8 µM) | relative viability (Vismodegib + Navitoclax; first compound 2.53 µM) | relative viability (Vismodegib + Navitoclax; first compound 8 µM) | relative viability (Ruxolitinib + OSI-027; first compound 0.08 µM) | relative viability (Ruxolitinib + OSI-027; first compound 0.253 µM) | relative viability (Ruxolitinib + OSI-027; first compound 0.8 µM) | relative viability (Ruxolitinib + OSI-027; first compound 2.53 µM) | relative viability (Ruxolitinib + OSI-027; first compound 8 µM)
LXF-289 | 0.766 | 0.671 | 0.52 | 0.82 | 0.616 | 1.02 | 0.993 | 0.911 | 1.07 | 0.966 | 0.919 | 0.931 | 0.935 | 0.917 | 0.917 | 0.776 | 0.79 | 0.789 | 0.698 | 0.624
NCI-H1793 | 0.155 | 0.234 | 0.175 | 0.162 | 0.121 | 0.868 | 0.735 | 0.642 | 1.31 | 0.815 | – | 0.481 | 0.504 | 0.522 | 0.373 | 0.346 | 0.239 | 0.374 | 0.253 | 0.26
NCI-H647 | 0.257 | 0.344 | 0.168 | 0.131 | 0.158 | 1.15 | 0.884 | 1 | 1.16 | 0.535 | – | 1.02 | 1.18 | 1.03 | 1.28 | 0.73 | 0.706 | 0.797 | 0.531 | 0.595
NCI-H3122 | 0.111 | 0.064 | 0.0908 | 0.0825 | 0.0706 | 1.06 | 1 | 0.926 | 1.03 | 1 | 1.01 | 1.04 | 0.994 | 0.984 | 1.02 | – | 0.296 | 1.22 | 0.51 | 0.569
PC-3 [JPC-3] | 0.718 | 0.718 | 0.698 | 0.726 | 0.705 | 0.512 | 0.474 | 0.461 | 0.482 | 0.424 | 0.758 | 0.789 | 0.769 | 0.768 | 0.778 | 0.756 | 0.702 | 0.811 | 0.704 | 0.672
NCI-H1355 | 0.71 | 0.665 | 0.643 | 0.597 | 0.409 | 1.06 | 1.05 | 0.834 | 1.07 | 0.627 | 0.931 | 1.06 | 0.863 | 0.913 | 0.952 | 0.382 | 0.328 | 0.388 | 0.373 | 0.318
NCI-H1792 | 0.462 | 0.524 | 0.367 | 0.506 | 0.359 | 1.04 | 0.964 | 0.913 | 0.966 | 0.816 | 0.634 | 0.655 | 0.588 | 0.616 | 0.619 | 0.694 | 0.624 | 0.675 | 0.529 | 0.6
NCI-H838 | 0.275 | 0.225 | 0.224 | 0.266 | 0.158 | 1.08 | 0.99 | 0.921 | 1.11 | 0.657 | 1.1 | 1.23 | 1.11 | 1.21 | 1.18 | 0.39 | 0.318 | 0.386 | 0.266 | 0.267
